Experimental findings from ChEMBL document CHEMBL5143637, “Design, synthesis and antibacterial activity against pathogenic mycobacteria of conjugated hydroxamic acids, hydrazides and O-alkyl/O-acyl protected hydroxamic derivatives” (Bioorg Med Chem Lett, 2022) are described below.

For orientation: CC50 means the concentration at which the toxic effect on the cells reaches its halfway point. As a reminder, the MIC50 is the lowest concentration that inhibits either 50% of growth or 50% of the strains tested, depending on the study. The MIC90 is an inhibitory concentration at the 90% level, which refers to growth in some studies and to a panel of isolates in others.

≈ marks a conversion by molar mass, not a printed value.

Data set [1] is described as follows: Cytotoxicity against C57BL/6 mouse BMDM cells assessed as reduction in cell viability measured after 24 hrs by resazurin dye based assay. The conditions noted are these: C57BL/6, mouse, BMDM cells (bone marrow-derived macrophages). In kind it is toxicity.
The subject of data set [2] is Mycobacteroides abscessus. Description: Antimycobacterial activity against Mycobacterium abscessus CIP104536T with smooth morphotype assessed as inhibition of mycobacterial growth incubated for 3 to 5 days by resazurin microtiter assay. In kind it is functional. Particulars: time 3-5 day.
The subject of the next data set is Mycobacterium marinum. Kind of data set: Antimycobacterial activity against Mycobacterium marinum ATCC BAA-535/M assessed as inhibition of mycobacterial growth incubated for 10 to 14 days by resazurin microtiter assay. In kind it is functional. The conditions noted are these: time 10-14 day. Background: Alamar Blue is a resazurin reagent that responds to reducing activity.

The test system of data set [3] is Mycobacteroides abscessus. Description: Antimycobacterial activity against Mycobacterium abscessus CIP104536T with rough morphotype assessed as inhibition of mycobacterial growth incubated for 3 to 5 days by resazurin microtiter assay. In kind it is functional. The conditions noted are these: time 3-5 day.
Data set [4] deals with Mycobacterium tuberculosis. Kind of data set: Antimycobacterial activity against Mycobacterium tuberculosis mc2 6230 assessed as inhibition of mycobacterial growth incubated for 10 to 14 days by resazurin microtiter assay. In kind it is functional. Particulars: time 10-14 day.

On to `O=C(/C=C/c1cccc(F)c1)NO`, for which the half-maximal cytotoxic concentration (CC50) at 24 h in data set [1] was under 10 µg/mL. In addition, the MIC50 in data set [2] turned out to be 12.2 µg/mL (≈ 67.3 µM); in the data set with Mycobacterium marinum it was 3.3 µg/mL (≈ 18.2 µM); in data set [3] it was 7.6 µg/mL (≈ 42 µM); in data set [4], 13.5 µg/mL (≈ 74.5 µM). Besides, the MIC90 in data set [2] is over 100 µg/mL; with Mycobacterium marinum it was 25.9 µg/mL (≈ 143 µM); in data set [3], 68.4 µg/mL (≈ 378 µM); in data set [4], over 100 µg/mL.
In the case of `COc1ccc(/C=C/C=C/C(=O)NN)cc1`, the CC50 at 24 h in data set [1] came out at 120 µg/mL (≈ 550 µM). Moreover, the MIC50 is over 100 µg/mL in data set [2], 12.6 µg/mL (≈ 57.7 µM) in the data set with Mycobacterium marinum, over 100 µg/mL in data set [3] and 18.1 µg/mL (≈ 82.9 µM) in data set [4]. Moreover, the MIC90 with Mycobacterium marinum worked out at 13.3 µg/mL (≈ 60.9 µM); in data set [4] it was 46.7 µg/mL (≈ 214 µM).
As for `COc1ccc(/C=C/C=C/C(=O)NO)cc1`, the CC50 at 24 h in data set [1] is under 10 µg/mL. Moreover, the MIC50 in data set [2] was over 100 µg/mL; in the data set with Mycobacterium marinum it was 14.8 µg/mL (≈ 67.5 µM); in data set [3], over 100 µg/mL; in data set [4] it was 48 µg/mL (≈ 219 µM). Further, the values for the MIC90 (in the data set on Mycobacterium marinum; in data set [4]) were 62.1 µg/mL (≈ 283 µM) and over 100 µg/mL, respectively.
Consider `NNC(=O)/C=C/c1cccc(F)c1`, for which the CC50 at 24 h in data set [1] was over 125 µg/mL. The MIC50 in data set [2] is over 100 µg/mL; in the data set on Mycobacterium marinum, 41.1 µg/mL (≈ 228 µM); in data set [3] it was over 100 µg/mL; in data set [4], 65.8 µg/mL (≈ 365 µM). Moreover, the MIC90 (with Mycobacterium marinum; in data set [4]) was over 100 µg/mL in each case.
As to `O=C(/C=C/C=C/c1ccc(-c2ccccc2)cc1)NO`, the CC50 at 24 h in data set [1] is over 125 µg/mL. Also, the MIC50 is 31.8 µg/mL (≈ 120 µM) in data set [2], over 100 µg/mL with Mycobacterium marinum, 6.9 µg/mL (≈ 26 µM) in data set [3] and over 100 µg/mL in data set [4]. Besides, the MIC90 was over 100 µg/mL in data set [2] and 7.5 µg/mL (≈ 28.3 µM) in data set [3].
`NNC(=O)/C=C/C=C/c1ccc(F)cc1`: the 50% cytotoxic concentration (CC50) at 24 h in data set [1] was over 125 µg/mL. The MIC50 in data set [2] was over 100 µg/mL; with Mycobacterium marinum, 20.6 µg/mL (≈ 99.9 µM); in data set [3], over 100 µg/mL; in data set [4] it was 27.4 µg/mL (≈ 133 µM). Also, the MIC90 (with Mycobacterium marinum; in data set [4]) was over 100 µg/mL throughout.
Take `O=C(CCc1ccccc1)NO`: the CC50 at 24 h in data set [1] was 95 µg/mL (≈ 575 µM). Besides, the MIC50 is over 100 µg/mL in data set [2], 11.9 µg/mL (≈ 72 µM) in the data set with Mycobacterium marinum, over 100 µg/mL in data set [3] and over 100 µg/mL in data set [4]. Further, the MIC90 with Mycobacterium marinum was determined as 89.3 µg/mL (≈ 541 µM).
For the molecule `COc1ccc(/C=C/C(=O)NO)cc1`, the cytotoxic concentration (CC50) at 24 h in data set [1] was under 10 µg/mL. The MIC50 in data set [2] is over 100 µg/mL; with Mycobacterium marinum it was 58.2 µg/mL (≈ 301 µM); in data set [3], over 100 µg/mL; in data set [4], 23.1 µg/mL (≈ 120 µM). Also, the MIC90 came out at 89.5 µg/mL (≈ 463 µM) in the data set with Mycobacterium marinum and 24.3 µg/mL (≈ 126 µM) in data set [4].
Take `O=C(/C=C/c1ccc(-c2ccccc2)cc1)NO`: the half-maximal cytotoxic concentration (CC50) at 24 h in data set [1] came to 16 µg/mL (≈ 66.9 µM). The MIC50 was over 100 µg/mL in data set [2], 20.8 µg/mL (≈ 86.9 µM) with Mycobacterium marinum, over 100 µg/mL in data set [3] and 20.6 µg/mL (≈ 86.1 µM) in data set [4]. The figures for the MIC90 (with Mycobacterium marinum; in data set [4]) were 68.6 µg/mL (≈ 287 µM) and over 100 µg/mL, respectively.
Turning to `CCCCCCCCCC(=O)ONC(=O)/C=C/C=C/c1ccc(F)cc1`, the half-maximal cytotoxic concentration (CC50) at 24 h in data set [1] was over 125 µg/mL. Besides, the MIC50 in data set [2] is over 100 µg/mL; in the data set on Mycobacterium marinum it was 13.2 µg/mL (≈ 36.5 µM); in data set [3], over 100 µg/mL; in data set [4], 20.3 µg/mL (≈ 56.2 µM). Also, the MIC90 was determined as 17.3 µg/mL (≈ 47.9 µM) with Mycobacterium marinum and 34.7 µg/mL (≈ 96 µM) in data set [4].
As to `NNC(=O)/C=C/c1ccc2c(c1)OCO2`, the CC50 at 24 h in data set [1] is 123 µg/mL (≈ 597 µM). The MIC50 (in data set [2]; in the data set with Mycobacterium marinum; in data set [3]; in data set [4]) was over 100 µg/mL in each case.
Regarding `CCCCOc1ccc(/C=C/C=C/C(=O)NN)cc1`, in data set [1], the CC50 at 24 h came to 65 µg/mL (≈ 250 µM). For the same molecule, the MIC50 (in data set [2]; in the data set on Mycobacterium marinum; in data set [3]; in data set [4]) was over 100 µg/mL each time.
Turning to `NNC(=O)/C=C/C=C/c1ccc(C(F)(F)F)cc1`, the cytotoxic concentration (CC50) at 24 h in data set [1] was over 125 µg/mL. Also, the MIC50 was over 100 µg/mL in data set [2], over 100 µg/mL in the data set on Mycobacterium marinum, 5.7 µg/mL (≈ 22.2 µM) in data set [3] and 23.7 µg/mL (≈ 92.5 µM) in data set [4]. The MIC90 in data set [3] was 19.4 µg/mL (≈ 75.7 µM); in data set [4], over 100 µg/mL.
On to `NNC(=O)/C=C/C=C/c1cccc(F)c1`, for which the CC50 at 24 h in data set [1] was over 125 µg/mL. Besides, the MIC50 (in data set [2]; in the data set with Mycobacterium marinum; in data set [3]; in data set [4]) was over 100 µg/mL throughout.
For the molecule `CCCCCC(=O)ONC(=O)/C=C/C=C/c1ccc(F)cc1`, the CC50 at 24 h in data set [1] was under 10 µg/mL. Further, the MIC50 is over 100 µg/mL in data set [2], 19.8 µg/mL (≈ 64.8 µM) with Mycobacterium marinum, over 100 µg/mL in data set [3] and 21.6 µg/mL (≈ 70.7 µM) in data set [4]. The MIC90 worked out at 92.9 µg/mL (≈ 304 µM) in the data set on Mycobacterium marinum and 40.7 µg/mL (≈ 133 µM) in data set [4].
In the case of `CCCCCCCCc1ccc(/C=C/C=C/C(=O)NO)cc1`, the half-maximal cytotoxic concentration (CC50) at 24 h in data set [1] was under 10 µg/mL. Also, the MIC50 in data set [2] was over 100 µg/mL; in the data set with Mycobacterium marinum it was 49.4 µg/mL (≈ 164 µM); in data set [3] it was over 100 µg/mL; in data set [4], over 100 µg/mL. Moreover, the MIC90 with Mycobacterium marinum is over 100 µg/mL.
As to `O=C(/C=C/c1ccccc1)NO`, the CC50 at 24 h in data set [1] is under 10 µg/mL. Besides, the MIC50 in data set [2] is over 100 µg/mL; with Mycobacterium marinum, 6.7 µg/mL (≈ 41.1 µM); in data set [3] it was over 100 µg/mL; in data set [4], 28.8 µg/mL (≈ 176 µM). Further, the MIC90 in the data set on Mycobacterium marinum stood at 32.4 µg/mL (≈ 199 µM); in data set [4], 40.7 µg/mL (≈ 249 µM).
Regarding `CCCC(=O)ONC(=O)/C=C/C=C/c1ccc(F)cc1`, in data set [1], the CC50 at 24 h is over 125 µg/mL. The MIC50 was over 100 µg/mL in data set [2], 7.9 µg/mL (≈ 28.5 µM) with Mycobacterium marinum, over 100 µg/mL in data set [3] and 11.9 µg/mL (≈ 42.9 µM) in data set [4]. Also, the MIC90 in the data set with Mycobacterium marinum was found to be 22.4 µg/mL (≈ 80.8 µM); in data set [4], 59.3 µg/mL (≈ 214 µM).
For `NNC(=O)/C=C/c1ccc(C(F)(F)F)cc1`, the half-maximal cytotoxic concentration (CC50) at 24 h in data set [1] is over 125 µg/mL. Moreover, the MIC50 in data set [2] is over 100 µg/mL; in the data set with Mycobacterium marinum, over 100 µg/mL; in data set [3], 46 µg/mL (≈ 200 µM); in data set [4], 20.4 µg/mL (≈ 88.6 µM). Besides, the MIC90 worked out at 46.8 µg/mL (≈ 203 µM) in data set [3] and 44.2 µg/mL (≈ 192 µM) in data set [4].
As to `CCCCCCONC(=O)/C=C/C=C/c1ccc(F)cc1`, in data set [1], the CC50 at 24 h was over 125 µg/mL. In addition, the MIC50 in data set [2] was over 100 µg/mL; with Mycobacterium marinum, 37.1 µg/mL (≈ 127 µM); in data set [3], over 100 µg/mL; in data set [4], over 100 µg/mL. Moreover, in the data set with Mycobacterium marinum, the MIC90 was over 100 µg/mL.
For the molecule `CCCCCC(=O)ONC(=O)/C=C/c1ccc(OC)cc1`, in data set [1], the CC50 at 24 h was over 125 µg/mL. The MIC50 was 63 µg/mL (≈ 216 µM) in data set [2], 21.2 µg/mL (≈ 72.8 µM) with Mycobacterium marinum, over 100 µg/mL in data set [3] and 32.8 µg/mL (≈ 113 µM) in data set [4]. Further, the MIC90 in data set [2] worked out at 76.5 µg/mL (≈ 263 µM); in the data set with Mycobacterium marinum, 46.7 µg/mL (≈ 160 µM); in data set [4], 61.4 µg/mL (≈ 211 µM).
Consider `NNC(=O)/C=C/c1cccc(C(F)(F)F)c1`, for which, in data set [1], the CC50 at 24 h was over 125 µg/mL. Also, the MIC50 was over 100 µg/mL in data set [2], over 100 µg/mL with Mycobacterium marinum, 51.4 µg/mL (≈ 223 µM) in data set [3] and 40.5 µg/mL (≈ 176 µM) in data set [4]. In addition, the values for the MIC90 in data set [3] and in data set [4] were 55.7 µg/mL (≈ 242 µM) and 65.7 µg/mL (≈ 285 µM), respectively.
With `O=C(/C=C/C=C/c1ccc(C(F)(F)F)cc1)NO`, in data set [1], the CC50 at 24 h was under 10 µg/mL. The MIC50 in data set [2] is over 100 µg/mL; with Mycobacterium marinum, over 100 µg/mL; in data set [3] it was 5.5 µg/mL (≈ 21.4 µM); in data set [4], 28.8 µg/mL (≈ 112 µM). The MIC90 in data set [3] is 10.9 µg/mL (≈ 42.4 µM); in data set [4] it was 80.6 µg/mL (≈ 313 µM).
